Test results: patent US20190112316A1, “THIAZOLO[3,2-A] PYRIMIDINONE AND OTHER HETEROBICYCLIC PYRIMIDINONE COMPOUNDS FOR USE IN MEDICAL THERAPY” (priority 2015, published 2019)
Values after ≈ are worked out from the molar mass of the structure shown.

What was measured:
[1] = Compound solubility in water; assay type: physicochemical
[2] = target: T1, glucocerebrosidase (Gcase) (Homo sapiens, UniProt P04062); test: Glucocerebrosidase (Gcase) activation assay, 4-methylumbelliferyl-beta-D-glucopyranoside substrate, with saposin C; assay type: biochemical; settings: for activation at 0.1 µM: read-out: Percent Gcase Activation 0.1 μM Test Compound; for activation at 1 µM: read-out: Percent Gcase Activation 1 μM Test Compound
T1 construct: micellar solution containing 10 nM GCase and 100 nM saposin C (Enzo ALX-201-262-C050)
T1 sequence (P04062 40-536): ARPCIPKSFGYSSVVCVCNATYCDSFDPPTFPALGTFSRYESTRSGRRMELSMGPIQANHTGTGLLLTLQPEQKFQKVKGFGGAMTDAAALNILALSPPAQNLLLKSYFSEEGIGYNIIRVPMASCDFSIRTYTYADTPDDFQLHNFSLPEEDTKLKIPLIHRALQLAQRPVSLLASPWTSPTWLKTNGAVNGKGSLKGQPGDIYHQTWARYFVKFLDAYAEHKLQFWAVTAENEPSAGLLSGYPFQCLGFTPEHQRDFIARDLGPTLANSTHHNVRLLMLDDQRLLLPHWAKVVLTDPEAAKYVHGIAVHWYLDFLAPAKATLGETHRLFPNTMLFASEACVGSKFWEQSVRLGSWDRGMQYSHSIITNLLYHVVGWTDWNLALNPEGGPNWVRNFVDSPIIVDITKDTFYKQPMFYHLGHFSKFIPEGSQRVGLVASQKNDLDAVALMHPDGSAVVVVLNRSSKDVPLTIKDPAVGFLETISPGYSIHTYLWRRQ
Experimental: A 484 μL aliquot of a 1.0 mg/mL solution of phosphatidylserine (PS) (Sigma P7769) in chloroform was evaporated under a stream of nitrogen for 1 hour. The lipid film was dissolved over 4 minutes of vigorous vortexing in 40 mL of 176 mM K2HPO4/50 mM citric acid (pH 4.7) containing 7.5 μL of triton X-100, resulting in a mixed micellar preparation with a composition of 0.32 mM triton and 0.37 mol % PS. 4-Methylumbelliferyl-beta-D-glucopyranoside (ACROS-337025000) was dissolved in the micellar solution to a final concentration of 2 mM for use as the reaction substrate.
Test compounds were diluted to the desired concentrations with dimethylsulfoxide (DMSO) from 10 mM stocks, and 0.41 μL of the DMSO compound mixture was added to 100 μL of micellar solution containing 10 nM GCase and 100 nM saposin C (Enzo ALX-201-262-C050). Pre-incubation was allowed to occur for 30 minutes at room temperature, after which the reaction was initiated by combining 25 μL of substrate solution with 25 μL of compound/GCase/saposin mixture. The reaction proceeded for 15 minutes at room temperature and was stopped by adding 150 μL of 1M glycine, pH 12.5. The endpoint of the reaction was monitored by measuring fluorescence intensity (excitation: 365 nm; emission: 440 nm) on a SpectraMax i3 instrument (Molecular Devices). Test compounds were screened at 1.0 and 0.1 μM final concentration, and subsequent 8-point dose response curves were obtained using 3-fold dilutions from a maximum final concentration of 5 μM.

For CCc1ccc(NC(=O)c2cnc3ccccn3c2=O)cc1, which solubility [1] is on record?
Its solubility is 1 µg/mL (≈ 3.41 µM).

What about the activation at 0.1 µM [2] of the same compound?
The activation at 0.1 µM was less than 5%.

And the activation at 1 µM [2]?
The activation at 1 µM was 5 to 20%.

Which results are given for Cc1cccc2ncc(C(=O)NC3CCC(C)CC3)c(=O)n12 (stereo not drawn)?
solubility [1]: 18.7 µg/mL (≈ 62.5 µM); activation at 0.1 µM [2]: < 5%; activation at 1 µM [2]: > 20%

With O=C(NC1CCc2ccccc2C1)c1cnc2n(c1=O)CCS2 (stereo not drawn) as the compound, how does the solubility [1] read?
Its solubility is 30.7 µg/mL (≈ 93.8 µM).

And the activation at 0.1 µM [2]?
The activation at 0.1 µM was less than 5%.

What about the activation at 1 µM [2] of the same compound?
Its activation at 1 µM is 5 to 20%.

For O=C(NC1CCc2ccccc21)c1cnc2n(c1=O)CCS2 (stereo not drawn), which solubility [1] is on record?
The solubility was 17.6 µg/mL (≈ 56.2 µM).

What about the activation at 0.1 µM [2] of the same compound?
The activation at 0.1 µM was less than 5%.

What about the activation at 1 µM [2] of the same compound?
Its activation at 1 µM is 5 to 20%.

Which results are given for CCc1ccc(NC(=O)c2cnc3scc(C)n3c2=O)cc1?
solubility [1]: 1.1 µg/mL (≈ 3.51 µM); activation at 0.1 µM [2]: < 5%; activation at 1 µM [2]: > 20%

Which solubility [1] does the source give for CCC1CCC(NC(=O)c2cnc3sccn3c2=O)CC1 (stereo not drawn) here?
The solubility was 4.9 µg/mL (≈ 16 µM).

What about the activation at 0.1 µM [2] of the same compound?
Its activation at 0.1 µM is 5 to 20%.

And the activation at 1 µM [2]?
Its activation at 1 µM is greater than 20%.

Which solubility [1] does the source give for CCC(C)c1ccc(NC(=O)c2cnc3n(c2=O)CCS3)cc1 (stereo not drawn) here?
The solubility was 0.3 µg/mL (≈ 0.911 µM).

What about the activation at 0.1 µM [2] of the same compound?
The activation at 0.1 µM was 5 to 20%.

And the activation at 1 µM [2]?
Its activation at 1 µM is greater than 20%.

For CCC(C)c1ccc(NC(=O)c2cnc3ccccn3c2=O)cc1 (stereo not drawn), which solubility [1] is on record?
The solubility was 0.3 µg/mL (≈ 0.933 µM).

And the activation at 0.1 µM [2]?
The activation at 0.1 µM was less than 5%.

What about the activation at 1 µM [2] of the same compound?
The activation at 1 µM was 5 to 20%.

For C[C@H](NC(=O)c1cnc2n(c1=O)CCS2)c1ccccc1, which solubility [1] is on record?
The solubility was 37.2 µg/mL (≈ 123 µM).

What about the activation at 0.1 µM [2] of the same compound?
Its activation at 0.1 µM is 5 to 20%.

What about the activation at 1 µM [2] of the same compound?
The activation at 1 µM was 5 to 20%.

Which results are given for Cc1csc2ncc(C(=O)Nc3ccc(C(C)C)cc3)c(=O)n12?
solubility [1]: 0.5 µg/mL (≈ 1.53 µM); activation at 0.1 µM [2]: 5 to 20%; activation at 1 µM [2]: > 20%

Which solubility [1] does the source give for CC(C)c1ccc(NC(=O)c2cnc3sccn3c2=O)nc1 here?
The solubility was 2.7 µg/mL (≈ 8.59 µM).

And the activation at 0.1 µM [2]?
Its activation at 0.1 µM is less than 5%.

And the activation at 1 µM [2]?
The activation at 1 µM was 5 to 20%.

For O=C(NC1CCCCCC1)c1cnc2n(c1=O)CCS2, which solubility [1] is on record?
Its solubility is 20.8 µg/mL (≈ 70.9 µM).

And the activation at 0.1 µM [2]?
The activation at 0.1 µM was less than 5%.

What about the activation at 1 µM [2] of the same compound?
The activation at 1 µM was 5 to 20%.

For CC(Cc1ccc(Cl)cc1)NC(=O)c1cnc2n(c1=O)CCS2 (stereo not drawn), which solubility [1] is on record?
Its solubility is 16.7 µg/mL (≈ 47.7 µM).

What about the activation at 0.1 µM [2] of the same compound?
Its activation at 0.1 µM is less than 5%.

And the activation at 1 µM [2]?
The activation at 1 µM was 5 to 20%.

What does the source list for Cc1cccc2ncc(C(=O)Nc3ccc4c(c3)OCCO4)c(=O)n12?
solubility [1]: 0.7 µg/mL (≈ 2.08 µM); activation at 0.1 µM [2]: < 5%; activation at 1 µM [2]: 5 to 20%

What does the source list for O=C(NC1CCC2(CCCCO2)CC1)c1cnc2n(c1=O)CCS2 (stereo not drawn)?
solubility [1]: 29.5 µg/mL (≈ 84.4 µM); activation at 0.1 µM [2]: < 5%; activation at 1 µM [2]: < 5%

With Cc1cccc2ncc(C(=O)NC3CCOCC3)c(=O)n12 as the compound, how does the solubility [1] read?
Its solubility is 31 µg/mL (≈ 108 µM).

What about the activation at 0.1 µM [2] of the same compound?
The activation at 0.1 µM was less than 5%.

What about the activation at 1 µM [2] of the same compound?
Its activation at 1 µM is 5 to 20%.

For CCCCc1ccc(NC(=O)c2cnc3cccc(C)n3c2=O)cc1, which solubility [1] is on record?
Its solubility is 0.05 µg/mL (≈ 0.149 µM).

And the activation at 0.1 µM [2]?
Its activation at 0.1 µM is 5 to 20%.

What about the activation at 1 µM [2] of the same compound?
Its activation at 1 µM is greater than 20%.

For O=C(Nc1ccc(N2CCCCC2)cc1)c1cnc2n(c1=O)CCS2, which solubility [1] is on record?
The solubility was 4 µg/mL (≈ 11.2 µM).

And the activation at 0.1 µM [2]?
The activation at 0.1 µM was less than 5%.

What about the activation at 1 µM [2] of the same compound?
The activation at 1 µM was less than 5%.

What does the source list for CCCCc1ccc(NC(=O)c2cnc3n(c2=O)CCS3)cc1?
solubility [1]: 0.2 µg/mL (≈ 0.607 µM); activation at 0.1 µM [2]: 5 to 20%; activation at 1 µM [2]: > 20%

What does the source list for Cc1cccc2ncc(C(=O)Nc3ccc(-n4ccnc4)cc3)c(=O)n12?
solubility [1]: 1.2 µg/mL (≈ 3.47 µM); activation at 0.1 µM [2]: < 5%; activation at 1 µM [2]: 5 to 20%

For CCN1CCN(c2ccc(NC(=O)c3cnc4n(c3=O)CCS4)cc2)CC1, which solubility [1] is on record?
The solubility was 34.8 µg/mL (≈ 90.3 µM).

And the activation at 0.1 µM [2]?
The activation at 0.1 µM was less than 5%.

What about the activation at 1 µM [2] of the same compound?
Its activation at 1 µM is 5 to 20%.

What does the source list for O=C(NC1Cc2ccccc2C1)c1cnc2sccn2c1=O?
solubility [1]: 1.2 µg/mL (≈ 3.85 µM); activation at 0.1 µM [2]: 5 to 20%; activation at 1 µM [2]: > 20%

Which solubility [1] does the source give for Cc1cccc2ncc(C(=O)Nc3ccc(C4CCCCC4)cc3)c(=O)n12 here?
The solubility was 0.2 µg/mL (≈ 0.553 µM).

What about the activation at 0.1 µM [2] of the same compound?
Its activation at 0.1 µM is less than 5%.

What about the activation at 1 µM [2] of the same compound?
The activation at 1 µM was greater than 20%.

Which results are given for CCCCCO[C@H]1CC[C@H](NC(=O)c2cnc3n(c2=O)CCS3)CC1?
solubility [1]: 8.4 µg/mL (≈ 23 µM); activation at 0.1 µM [2]: < 5%; activation at 1 µM [2]: 5 to 20%

For O=C(NC1CCC(c2ccccc2)CC1)c1cnc2n(c1=O)CCS2 (stereo not drawn), which solubility [1] is on record?
Its solubility is 10.6 µg/mL (≈ 29.8 µM).

What about the activation at 0.1 µM [2] of the same compound?
The activation at 0.1 µM was 5 to 20%.

And the activation at 1 µM [2]?
The activation at 1 µM was greater than 20%.

Which results are given for Cc1cccc2ncc(C(=O)NC3CCCc4ccccc43)c(=O)n12 (stereo not drawn)?
solubility [1]: 13.9 µg/mL (≈ 41.7 µM); activation at 0.1 µM [2]: 5 to 20%; activation at 1 µM [2]: > 20%

Which solubility [1] does the source give for CCC(C)c1ccc(NC(=O)c2cnc3cccc(C)n3c2=O)cc1 (stereo not drawn) here?
Its solubility is 1 µg/mL (≈ 2.98 µM).

What about the activation at 0.1 µM [2] of the same compound?
Its activation at 0.1 µM is 5 to 20%.

What about the activation at 1 µM [2] of the same compound?
The activation at 1 µM was greater than 20%.

Which results are given for C#Cc1ccc(NC(=O)c2cnc3n(c2=O)CCS3)cc1?
solubility [1]: 1.5 µg/mL (≈ 5.04 µM); activation at 0.1 µM [2]: < 5%; activation at 1 µM [2]: 5 to 20%
